Experimental findings from paper PMC12075652, “ATP functions as a pathogen-associated molecular pattern to activate the E3 ubiquitin ligase RNF213” (Nature Communications, 2025) are described below.

The target in assay [1] is T1, RNF213 (Mus musculus, UniProt E9Q555).
T1 construct: full-length recombinant protein, about 600 kDa, N-terminal Strep(II) tag in the pulldown construct
The assay can be described thus: UBE2L3~Ub discharge assay. In kind it is biochemical. The conditions noted are these: activator; 1 mM nucleotide, 0.025 μM E3, 20 μM E2~Ub.

The target of assay [2] is T2, RNF213 (∆N338) (Mus musculus, UniProt E9Q555).
T2 construct: N-terminal 338 residues deleted (∆N338), recombinant; biotin UBE2L3~Ub activity-based probe as read-out
In words: activation of RNF213 labelling by biotin UBE2L3~Ub activity-based probe, blot quantification. In kind it is biochemical.

Assay [3] concerns the target T2, RNF213 (∆N338). The assay can be described thus: antagonism of ATPγS-dependent activation, ABP labelling. In kind it is biochemical. Conditions: 900 μM ADP against ATPγS titration; pH 7.5, 2.5 mM MgCl2, 30 °C.
Assay [4] addresses T3, RNF213-UBE2L3~Ub complex (RNF213-ABP) (Mus musculus, UniProt E9Q555).
T3 construct: full-length murine RNF213 covalently linked at Cys4462 to human UBE2L3~Ub activity-based probe; ubiquitin and RZ domain not resolved; with Ubiquitin-conjugating enzyme E2 L3 (Homo sapiens); Ubiquitin (Homo sapiens)
The assay can be described thus: cryo-EM structure, […] Å. In kind it is binding. Conditions: ADP modelled in AAA3 and AAA4; ATPγS-stimulated labelling reaction applied directly to grid.

In assay [5] the target is T4, RNF213 (Mus musculus, UniProt E9Q555, E2449Q/E2806Q).
T4 construct: full-length recombinant protein, about 600 kDa, N-terminal Strep(II) tag in the pulldown construct
The assay can be described thus: cryo-EM structure, […] Å. Type of assay: binding. Conditions: ATP modelled in AAA4, AAA3 empty; WB34 mutant.

One may read the EC50 as the concentration that produces a half-maximal response. Lower therefore signals higher potency in that assay. Take `Nc1ncnc2c1ncn2[C@@H]1O[C@H](COP(=O)(O)OP(=O)(O)OP(O)(O)=S)[C@@H](O)[C@H]1O` [ATPγS]: at RNF213 [1], the “UBE2L3~Ub discharge assay” value was “(ATPγS) and adenylyl-imidodiphosphate (AMP-PNP) also stimulated E2~Ub discharge”. The molecule further registered an EC50 on RNF213 (∆N338) [2] of 85 µM.

Consider `Nc1ncnc2c1ncn2[C@@H]1O[C@H](COP(=O)(O)OP(=O)(O)O)[C@@H](O)[C@H]1O` [ADP], for which the “antagonism of ATPγS-dependent activation, ABP labelling” value on RNF213 (∆N338) [3] is given as “These data suggest that ADP inhibits ATP-dependent activation”. Further, the “cryo-EM structure, 3.8 Å” value in assay [4] was “new density at the AAA3 and AAA4 sites allowed modeling of ADP”.

With `Nc1ncnc2c1ncn2[C@@H]1O[C@H](COP(=O)(O)OP(=O)(O)OP(=O)(O)O)[C@@H](O)[C@H]1O` [ATP], at RNF213 [5], the “cryo-EM structure, 4.5 Å” value is reported as “Although ATP could be modeled into AAA4, AAA3 was empty”. Besides, at RNF213 [1], the “UBE2L3~Ub discharge assay” value is listed as “E3 activity was enhanced by ATP, but not by ADP or AMP”.

For the molecule `Nc1ncnc2c1ncn2[C@@H]1O[C@H](COP(=O)(O)OP(=O)(O)NP(=O)(O)O)[C@@H](O)[C@H]1O` [AMP-PNP], the “UBE2L3~Ub discharge assay” value at RNF213 [1] was “(ATPγS) and adenylyl-imidodiphosphate (AMP-PNP) also stimulated E2~Ub discharge”.
